From patent publication US8691726B2, “Synergistic combination of a glyphosate compound and ZPT” (Dow Global Technologies LLC, priority 2010, dated 2014)
Converted amounts (≈) assume the structure as drawn. Like-named read-outs stand apart in the source and are kept apart here.

Assays:
[1] = tested on: Cladosporium herbarum was mixed with Trichoderma viride; experiment: Fungal efficacy on dry paint film (Modified ASTM 5590), pool TV + Ch; assay type: cell-based; settings: four weeks
Method: (§1) Each sample was tested in duplicate.
(§2) Fungal efficacy was tested as follows (Modified ASTM 5590).

[2] = tested on: Chlorella sp., Chlorella kessleri, and Nostoc commune; experiment: Algal efficacy on dry paint film (Modified ASTM 5589), pool Cs + Ck + Nc; assay type: cell-based
Method: (§3) A single biocide or blend of biocides was post added into white acrylic latex paint free of biocides to give a maximum total active ingredient/s concentration tested. This paint was then diluted with a biocide free acrylic latex paint to give targeted concentrations for the testing. Depending on the type of biocide blends tested, the total biocides concentrations varies from 400 to 3300 ppm. After biocides addition or dilution, each sample was hand mixed for at least a minute until uniformity was achieved. Each of the paint samples as well as a control sample (containing no biocide) were used to prepare films on black plastic-vinyl chloride/acetate copolymer panels (Leneta Company, Mahwah, N.J.) using a 0.0762 mm (3 mil) bird bar applicator. The panels were thoroughly dried for at least 2 days avoiding direct exposure to sunlight. Square discs (0.5 inch^2; 1.27 cm^2) were cut out from each panel and were used as the substrate for fungal and algal efficacy tests. This sample size allowed for an agar border when the sample disc was placed into the well of the test plate. Each sample was tested in duplicate.
(§4) The appropriate media (BOLD'S 3N for Chlorophytes, BG-11 for Cyanobacteria, and PDA for fungi) were used to support microbial growth. The test plates were maintained at room temp (25° C.-26° C.), in a cycled light-dark environment, for four weeks for algae. Plates for fungal challenge tests were maintained at 30° C. for four weeks. At the end of the incubation period the samples were scored for percent area covered by visible microbial growth.
(§5) Algal efficacy was tested as follows (Modified ASTM 5589).
(§6) ASTM 5589 is a standard accelerated test method for determining resistance of various coatings (including paints) to algal defacement. To accommodate for high-throughput screening, this method was scaled down from petri plates to 6-well plates. A single coupon was placed with a pair of sterile forceps at the center of the agar plug (on top) with the painted surface facing upwards. Algal inoculums were prepared by mixing equal concentrations (approximately 1×10^6 cfu/ml) and equal volumes (depending on number of samples to be inoculated) of like growing organisms.
(§7) In this synergy study, three pool of mixed algae were prepared as the test inoculum, Gloeocapsa sp. and Oscillatoria sp. a mix of cyanobacteria grown on BG-11 media; Chlorella sp., Chlorella kessleri, and Nostoc commune are unicellular chlorphytes that were mixed and grown on Bold media; Trentepohlia aurea, Tretepohlia odorata, and Calotrix parientina are filamentous algae that were mixed and grown on Bold media.
(§8) Each well that contained a tested coupon was inoculated with 400 μl of organism mixture (approximately 1×10^6 cfu/ml) making sure that the whole surface (paint film as well as the agar surrounding it) was evenly covered. The plates were incubated at room temp (25° C.-26° C.) with cyclic exposure to light (OTT-Lite model # OTL4012P, 40 Watt, 26 KLumen) and dark phases, for a period of four weeks. The total area covered was evaluated at the end of each week according to percent area covered in 5% increments.
(§9) The SI is calculated based on F. C. Kull et.
(§10) SI value of <1 in the formula indicates a synergism of the blended biocides exists.
(§11) NE=no end point at the concentration tested that will meet the percent inhibition criteria set in each SI calculation.

[3] = tested on: diatom (Navicula pelliculosa); settings: 7 day; cited from earlier work
[4] = cited from earlier work
[5] = tested on: blue-green algae (Anabaena flos-aquae); settings: 7 day; cited from earlier work
[6] = tested on: Trentepohlia aurea, Tretepohlia odorata, and Calotrix parientina; experiment: Algal efficacy on dry paint film (Modified ASTM 5589), pool Cp + To + Ta; assay type: cell-based; settings: for % Inhibition Cp + To + Ta: four weeks; for % Inhibition, Cal-Tre: at the total conc printed for the same blend
Method: as §3, §4, §5, §6, §7, §8, §9, §10, §11

[7] = tested on: marine algae (Skeletonema costatum); settings: cited from earlier work
[8] = tested on: green algae (Selenastrum capricornutum); settings: cited from earlier work; for EbC50: biomass
[9] = tested on: various algae; settings: cited from earlier work
[10] = tested on: Aspergillus niger was mixed with Penicillium funiculosum; experiment: Fungal efficacy on dry paint film (Modified ASTM 5590), pool An + Pf; assay type: cell-based; settings: for % Inhibition An + Pf: four weeks; for % Inhibition, An-Pf: at the total conc printed for the same blend
Method: as §3, §4, §2
ASTM 5590 is a standard accelerated test method for determining resistance of various coatings (including paints) to fungal defacement. To accommodate for high-throughput screening, this method was scaled down from petri plates to 6-well plates. To set up the test, an agar plug was placed at the bottom of each well of the sterile 6-well plate. A single coupon was placed with a pair of sterile forceps at the center of the agar plug (on top) with the painted surface facing upwards. Fungal inoculums were prepared by mixing equal concentrations (approximately 1×10^6 cfu/ml) and equal volumes (depending on number of samples to be tested) of like growing organisms. For this synergy study, three pools of mixed fungi were prepared as the test inoculum. Cladosporium herbarum was mixed with Trichoderma viride, Aspergillus niger was mixed with Penicillium funiculosum and Alternaria alternata was mixed with Aureobasidium pullulans. Each well was inoculated with 400 microliter of organism mixture (approximately 1×10^6 cfu/ml) making sure that the whole surface (paint film as well as the agar surrounding it) was evenly covered. The plates were incubated at 30° C. in presence of moisture, for a period of four weeks. The total percent area covered was evaluated and recorded at the end of each week and recorded in increments of 5%.
as §9, §10, §11

[11] = tested on: Alternaria alternata was mixed with Aureobasidium pullulans; experiment: Fungal efficacy on dry paint film (Modified ASTM 5590), pool Aa + Ap; assay type: cell-based; settings: 672 h, four weeks
Method: as §1, §2

[12] = tested on: Gloeocapsa sp. and Oscillatoria sp.; experiment: Algal efficacy on dry paint film (Modified ASTM 5589), pool Gs + Os; assay type: cell-based; settings: for % Inhibition Gs + Os: four weeks; for % Inhibition, Os-Gl: at the total conc printed for the same blend
Method: as §3, §4, §5, §6, §7, §8, §9, §10, §11

[13] = Nostoc commune, 672 h, read-out: % Inhibition Cs + Ck + Nc
[14] = Trentepohlia aurea, 672 h, read-out: % Inhibition Cp + To + Ta
[15] = 672 h, read-out: % Inhibition An + Pf
[16] = 672 h, read-out: % Inhibition Gs + Os

## O=C(O)CNCP(=O)(O)O [glyphosate, N-(phosphonomethyl)glycine]
[1]; 672 h, 750 ppm in paint
  inhibition at 750 ppm: 2.5%
[1]; 672 h, 1500 ppm in paint
  inhibition at 1500 ppm: 50%
[1]; 672 h, 2500 ppm in paint
  inhibition at 2500 ppm: 72.5%
[2]; [13]
  inhibition at 750 ppm: 37.5%
  inhibition at 1500 ppm: 60%
  inhibition at 2500 ppm: 80%
[3]
  EC50: 42 µg/mL (≈ 248 µM)
[4]
  solubility in water: relatively high
[5]
  EC50: 15 µg/mL (≈ 88.7 µM)
[6]; [14]
  inhibition at 750 ppm: 0%
  inhibition at 1500 ppm: 10%
  inhibition at 2500 ppm: 7.5%
[7]; 96 hr
  EC50: 1.3 µg/mL (≈ 7.69 µM)
[7]; 7 day
  EC50: 0.64 µg/mL (≈ 3.79 µM)
[8]; 72 hr
  EbC50: 485 mg/L
[8]; 72 hr, growth rate
  ErC50: 460 mg/L
[8]; 7 day
  EbC50: 13.8 mg/L
[9]
  activity against various algae: relatively low
[10]; [15]
  inhibition at 750 ppm: 0%
  inhibition at 1500 ppm: 5%
  inhibition at 2500 ppm: 10%
[11]; 750 ppm in paint
  inhibition at 750 ppm: 7.5%
[11]; 1500 ppm in paint
  inhibition at 1500 ppm: 20%
[11]; 2500 ppm in paint
  inhibition at 2500 ppm: 67.5%
[12]; [16]
  inhibition at 750 ppm: 15%
  inhibition at 1500 ppm: 72.5%
  inhibition at 2500 ppm: 90%

## zinc glyphosate
[1]; 750 ppm in paint
  % Inhibition TV + Ch: 50%
[1]; 1500 ppm in paint
  % Inhibition TV + Ch: 75%
[1]; 2500 ppm in paint
  % Inhibition TV + Ch: 90%
[6]; 750 ppm in paint
  % Inhibition Cp + To + Ta: 0%
[6]; 1500 ppm in paint
  % Inhibition Cp + To + Ta: 0%
[6]; 2500 ppm in paint
  % Inhibition Cp + To + Ta: 0%
[6]; Cal-Tre
  % Inhibition, Cal-Tre: 100%
[10]; 750 ppm in paint
  % Inhibition An + Pf: 20%
[10]; 1500 ppm in paint
  % Inhibition An + Pf: 27.5%
[10]; 2500 ppm in paint
  % Inhibition An + Pf: 30%
[10]; An-Pf
  % Inhibition, An-Pf: 100%
[12]; 750 ppm in paint
  % Inhibition Gs + Os: 15%
[12]; 1500 ppm in paint
  % Inhibition Gs + Os: 72.5%
[12]; 2500 ppm in paint
  % Inhibition Gs + Os: 90%
[12]; Os-Gl
  % Inhibition, Os-Gl: 100%

## zinc pyrithione [ZPT]
[2]; at the total conc printed for the same blend, Ch-No
  % Inhibition, Ch-No: 80%
[2]; total active in paint, Ch-No
  Total conc (minimum inhibitory concentration chosen for SI), Ch-No: 412.5 pppm
[6]; Cal-Tre
  % Inhibition, Cal-Tre: 40%
[6]; total active in paint, Cal-Tre
  Total conc (minimum inhibitory concentration chosen for SI), Cal-Tre: 3300 pppm
[10]; An-Pf
  % Inhibition, An-Pf: 0%
[10]; total active in paint, An-Pf
  Total conc (minimum inhibitory concentration chosen for SI), An-Pf: 3300 pppm
[12]; Os-Gl
  % Inhibition, Os-Gl: 100%
[12]; total active in paint, Os-Gl
  Total conc (minimum inhibitory concentration chosen for SI), Os-Gl: 3300 pppm
